Data reported in article PMC12298624, “Anti-Infective Properties, Cytotoxicity, and In Silico ADME Parameters of Novel 4′-(Piperazin-1-yl)benzanilides” (Pharmaceuticals, 2025).
Where two headings read alike, the source gives them in different places.

Assays:
E. coli NCTC 13353 = experiment: MIC/MBC microbroth dilution (EUCAST); type: cell-based, Escherichia coli; settings: Escherichia coli; for MBC: NCTC13353; for MIC: NCTC13353, read-out: MIC
Description: (§1) Minimum inhibitory concentrations (MIC values) were obtained using the microbroth dilution method as stated in the EUCAST guidelines. Tests were conducted on cation adjusted Mueller–Hinton broth (caMHB) or agar (caMHA). These were prepared and stored following the manufacturer’s guidelines. Biological organisms were prepared via growth on either Luria–Bertani (LB) or cation adjusted Mueller–Hinton agar plates. These were grown for 24 h at 37 °C, except for Micrococcus luteus where MICs took longer to grow and as a consequence were read after 48 h once a clear positive control could be observed. For the MIC experiment, the bacteria were prepared using the McFarland 0.5 standard and diluted 1 in 100 or 1 in 10 in caMHB following EUCAST and CSLI guidelines for the preparation of bacteria. Testing of the compounds using the microbroth dilution method took place in 96-well plates. Serial 2-fold dilutions of compounds in caMHB covering a range from 256 µg/mL to 0.25 µg/mL were prepared. Bacteria preparations (McFarland) were added to the compound dilutions, further halving the compound concentrations. The plate was then incubated for 18 h at 37 °C. Controls for the MIC experiments included a bacterial growth (positive) control of bacteria and caMHB only and a media only (negative) control. After incubation, the plates were read, whereby the positive control of bacteria was visible and the negative control was clear of contamination. The last clear well, where there is no growth of bacteria, was counted as the MIC value. […] The lowest concentration without any bacterial growth was counted as the MBC value. The following pathogens were used: Pseudomonas aeruginosa NCTC 13437, Escherichia coli NCTC 13353, Bacillus subtilis 168a, Serratia marcescens NCTC 9940, Micrococcus luteus ATCC 10240, Staphylococcus aureus JE2 USA 300, Acinetobacter baumannii ATCC 19606, and Klebsiella pneumoniae ATCC 700603. A concentration range of 256 µg/mL to 0.25 µg/mL of a combination of ciprofloxacin and meropenem against E. coli 25922 was used as an antibiotic control to ensure correct dilution and performance of the assay.

A. baumannii ATCC 19606 = experiment: MIC/MBC microbroth dilution (EUCAST); type: cell-based, Acinetobacter baumannii; settings: Acinetobacter baumannii; for MBC: ATCC19606; for MIC: ATCC19606, read-out: MIC
Description: as §1

M. luteus ATCC 10240 = experiment: MIC/MBC microbroth dilution (EUCAST); type: cell-based, Micrococcus luteus; settings: for MBC: read-out: MBC
Description: as §1

P. falciparum NF54 = experiment: In vitro microplate assay against P. falciparum NF54 (3H-hypoxanthine incorporation); type: cell-based, Plasmodium falciparum; settings: Plasmodium falciparum, NF54, chloroquine-sensitive strain NF54, erythrocytic stages; read-out: P.f.NF54 IC50
Description: Serial drug dilutions of eleven 3-fold dilution steps covering a range from 100 to 0.002 µg/mL were prepared. […] After 48 h of incubation time, 0.05 mL of ^3H-hypoxanthine (=0.5 µCi) was added to each well of the plate. The plates were incubated for a further 24 h under the same conditions. Plates were then harvested using a BetaplateTM cell harvester (Wallac, Zurich, Switzerland). Red blood cells were transferred onto a glass fiber filter and then washed with distilled aqua demin. The dried filters were inserted into a plastic foil with 10 mL of scintillation fluid and counted in a BetaplateTM liquid scintillation counter (Wallac, Zurich, Switzerland). IC50 values were calculated from sigmoidal inhibition curves by linear regression using Microsoft Excel. […] Louis, MO, USA) was used as control.

[1] = Resazurin-based in vitro cytotoxicity with HepG2 cells; type: cell-based, human; settings: HepG2 cells; human hepatocarcinoma cells, 48 h
Description: The HepG2 cells were washed with DPBS (Dulbecco’s PBS without calcium and magnesium, Gibco, Cat #21600-044) and trypsinized with trypsin solution in DPBS. Trypsinization was stopped by adding culture medium, and after being stained with Trypan Blue (SORS Ukraine) cells were counted using a counting chamber (Hausser Scientific, Cat #3500). The cell suspension was placed in a falcon tube containing plating medium DMEM/High glucose with 1% fetal bovine serum, 100 units/mL penicillin, and 100 µg/mL streptomycin. Cells at a density of 250,000 cells/mL were seeded in sterile 384-well plates (Greiner Bio-One, Cat #781091) in a volume of […] and incubated at 37 °C and 5% CO2. Serial dilutions of ten 3-fold dilution steps of test and reference compounds covering a range from 100.0 to 0.005 µM were added to the wells, followed by incubation at 37 °C and 5% CO2 for 48 h. Then, resazurin (50 µM final concentration) was added and plates were incubated for another 3 h. The plates were read with a SpectraMax microplate reader (Molecular Devices Cooperation, Sunnyvale, CA, USA)) using an extinction wavelength of 555 nm and an emission wavelength of 570 nm. IC50 values were calculated using GraphPad Prism 9.0 charting software. Doxorubicin (Sigma Aldrich D1515) was used as control.

[2] = Resazurin-based in vitro cytotoxicity with L-6 cells; type: cell-based, rat; settings: rat
Description: Serial drug dilutions of eleven 3-fold dilution steps covering a range from 100 to 0.002 µg/mL were prepared. After 70 h of incubation, the plates were inspected under an inverted microscope to assure growth of the controls and sterile conditions. […] The plates were read with a Spectramax Gemini XS microplate fluorometer (Molecular Devices Cooperation, Sunnyvale, CA, USA) using an excitation wavelength of 536 nm and an emission wavelength of 588 nm. IC50 values were calculated by linear regression from the sigmoidal dose–inhibition curves using SoftmaxPro software Version 8.2.1 (Molecular Devices Cooperation, Sunnyvale, CA, USA). Podophyllotoxin (Sigma P4405) was used as control.

P. aeruginosa NCTC 13437 = experiment: MIC/MBC microbroth dilution (EUCAST); type: cell-based; settings: Pseudomonas aeruginosa, NCTC13437
Description: as §1

S. marcescens NCTC 9940 = experiment: MIC/MBC microbroth dilution (EUCAST); type: cell-based; settings: Serratia marcescens, NCTC9940
Description: as §1

[3] = test system: K. pneumoniae ATCC 700603; experiment: MIC/MBC microbroth dilution (EUCAST); type: cell-based; settings: Klebsiella pneumoniae, ATCC700603
Description: as §1

S. aureus JE2 USA 300 = experiment: MIC/MBC microbroth dilution (EUCAST); type: cell-based; settings: Staphylococcus aureus, USA300, S. aureus JE2 USA 300
Description: as §1

B. subtilis 168a = experiment: MIC/MBC microbroth dilution (EUCAST); type: cell-based, Bacillus subtilis; settings: Bacillus subtilis, 168A; for MIC: read-out: MIC
Description: as §1

[4] = Parallel artificial membrane permeability assay (PAMPA); settings: PAMPA, pH 7.4, Pe, PBS pH 7.4, 200 µM, 5 h, room temperature
Description: With the high-throughput PAMPA the newly synthesized compounds were tested for their passive permeability through cell membranes without the influence of efflux pumps or transporter proteins. The assay was performed using a Corning® Gentest^TM Precoated PAMPA Plate System (Corning, Glendale, AZ, USA) with 96-well polystyrene plates. The bottom of the acceptor plate consists of a porous membrane, whereby the pores are lined with a lipid–oil–lipid triple layer. Stock solutions of each test compound at 10 mM were prepared in DMSO or methanol and diluted with phosphate-buffered saline (PBS at a pH of 7.4) to a final concentration of 200 µM. […] The donor plate (bottom plate) was filled with the compound solutions, whereby all compounds were tested in quadruplicates. Each well of the acceptor plate (top plate) was filled with PBS buffer. Donor and acceptor plates were combined and incubated at room temperature for 5 h. After that, the plates were separated and 150 µL of each well of both plates were transferred to 96-well UV plates (Greiner Bio-One). Absorption at different wavelengths covering a range from 200 to 300 nm was measured using a SpectraMax M3 UV plate reader. […] The plates were analyzed at the wavelength where the R2 value of the calibration curve was higher than 0.99 [47].
Recovery of compounds from donor and acceptor wells (mass retention) was calculated as shown in the equation below. Data were only accepted when recovery exceeded 70%. The equation is as follows:(3) R=1−[cDt×VD+cAt×VA]/(c0×VD) where

[5] = Micrococcus luteus, ATCC10240, M. luteus ATCC 10240
[6] = Micrococcus luteus, ATCC10240, M. luteus ATCC 10240, read-out: MIC

Row | Compound | MIC (E. coli NCTC 13353) [µg/mL] | MIC (A. baumannii ATCC 19606) [µg/mL] | MIC (M. luteus ATCC 10240; [6]) [µg/mL] | IC50 (P. falciparum NF54) [µM] | MIC (P. aeruginosa NCTC 13437) [µg/mL] | MIC (S. marcescens NCTC 9940) [µg/mL] | MIC [3] [µg/mL] | MIC (S. aureus JE2 USA 300) [µg/mL] | MIC (B. subtilis 168a) [µg/mL] | Papp at 5 h, 200 µM [4] [×10⁻⁶ cm/s] | MBC (E. coli NCTC 13353) [µg/mL] | MBC (A. baumannii ATCC 19606) [µg/mL] | MBC (M. luteus ATCC 10240; [5]) [µg/mL] | IC50 at 48 h [1] [µM] | IC50 at 70 h [2] [µM] | MBC (P. aeruginosa NCTC 13437) [µg/mL] | MBC (S. marcescens NCTC 9940) [µg/mL] | MBC [3] [µg/mL] | MBC (S. aureus JE2 USA 300) [µg/mL] | MBC (B. subtilis 168a) [µg/mL] | other results
1 | O=C(c1cccc(C(F)(F)F)c1Oc1ccc(F)cc1)N1CCOCC1 [Compound 51, [2-(4-Fluorophenoxy)-3-(trifluoromethyl)phenyl](morpholin-4-yl)methanon] | > 256 | 256 | 256 | 81.1 | > 256 | > 256 | > 256 | > 256 | 256 | 10.4 | > 256 | 256 | 128 | > 100 | 154 | > 256 | > 256 | > 256 | > 256 | > 256 | –
2 | O=C(Nc1ccc(N2CCNCC2)cc1)c1cccc([N+](=O)[O-])c1Oc1ccc(F)cc1 [Compound 61, 2-(4-Fluorophenoxy)-3-nitro-N-[4-(piperazin-1-yl)phenyl]benzamide] | > 256 | 256 | 128 | 4.1 | > 256 | > 256 | 256 | 128 | 256 | 8.36 | > 256 | > 256 | 128 | 29.8 | 43.8 | > 256 | > 256 | > 256 | > 256 | > 256 | –
3 | O=C(c1cccc(C(F)(F)F)c1Oc1ccc(F)cc1)N1CCNCC1 [Compound 52, [2-(4-Fluorophenoxy)-3-(trifluoromethyl)phenyl](piperazin-1-yl)methanon] | > 256 | 256 | 256 | 23.2 | > 256 | > 256 | > 256 | > 256 | > 256 | 8.35 | > 256 | > 256 | 256 | > 100 | 136 | > 256 | > 256 | > 256 | > 256 | > 256 | –
4 | CN1CCN(C(=O)c2cccc(C(F)(F)F)c2Oc2ccc(F)cc2)CC1 [Compound 49, [2-(4-Fluorophenoxy)-3-(trifluoromethyl)phenyl](4-methylpiperazin-1-yl)methanon] | 256 | 256 | 256 | 55.2 | 256 | > 256 | > 256 | > 256 | 256 | 8.5 | > 256 | > 256 | 256 | > 100 | 137 | > 256 | > 256 | > 256 | > 256 | > 256 | –

More lines, main results first:

Row | MIC (E. coli NCTC 13353) [µg/mL] | MIC (A. baumannii ATCC 19606) [µg/mL] | MIC (M. luteus ATCC 10240; [6]) [µg/mL] | IC50 (P. falciparum NF54) [µM] | MIC (P. aeruginosa NCTC 13437) [µg/mL] | MIC (S. marcescens NCTC 9940) [µg/mL] | MIC [3] [µg/mL] | MIC (S. aureus JE2 USA 300) [µg/mL] | MIC (B. subtilis 168a) [µg/mL] | Papp at 5 h, 200 µM [4] [×10⁻⁶ cm/s] | Compound | MBC (E. coli NCTC 13353) [µg/mL] | MBC (A. baumannii ATCC 19606) [µg/mL] | MBC (M. luteus ATCC 10240; [5]) [µg/mL] | IC50 at 48 h [1] [µM] | IC50 at 70 h [2] [µM] | MBC (P. aeruginosa NCTC 13437) [µg/mL] | MBC (S. marcescens NCTC 9940) [µg/mL] | MBC [3] [µg/mL] | MBC (S. aureus JE2 USA 300) [µg/mL] | MBC (B. subtilis 168a) [µg/mL] | other results
5 | > 256 | 256 | 16 to 64 | 2.33 | > 256 | > 256 | 256 | 32 | 128 | 7.67 | O=C(Nc1ccc(N2CCNCC2)cc1)c1ccccc1Oc1ccccc1 [Compound 64, 2-Phenoxy-N-[4-(piperazin-1-yl)phenyl]benzamide] | > 256 | > 256 | – | 12.3 | 40.6 | > 256 | > 256 | > 256 | 64 | 256 | MIC (M. luteus ATCC 10240; M. luteus ATCC 10240): 32 µg/mL
6 | > 256 | 256 | 128 | 3.81 | > 256 | > 256 | 256 | 128 | 128 | 4.98 | O=C(Nc1ccc(N2CCNCC2)cc1)c1cccc(C(F)(F)F)c1Oc1ccccc1 [Compound 58, 2-Phenoxy-N-[4-(piperazin-1-yl)phenyl]-3-(trifluoromethyl)benzamide] | > 256 | > 256 | 128 | 5.8 | 25.9 | > 256 | > 256 | 256 | 128 | 256 | –
